Assay results taken from PMC8198181, “Evaluation of Substituted N-Phenylpiperazine Analogs as D3 vs. D2 Dopamine Receptor Subtype Selective Ligands” (Molecules, 2021).

Test system: DBA/2J mice
Assay: DOI-dependent head twitch response inhibition
Type: in vivo, mouse
Settings: male DBA/2J mice, 10 mg/kg i.p., DOI 5 mg/kg, 30 min
From the text: First, we have previously published that D3 receptor selective compounds could attenuate a hallucinogen-dependent head twitch response (HTR) in male DBA/2J mice. […] Second, we previously reported that D3 vs. D2 dopamine receptor subtype selective ligands could attenuate L-dopa dependent abnormal involuntary movement (AIM) scores in unilaterally lesioned (hemiparkinsonian) male rats, which is a model for L-dopa-Induced Dyskinesia (LID).
Upon arrival DBA/2J mice (Jackson Labs) were allowed to acclimate for at least one week prior to testing. Mice were housed at ≤4 animals per cage with unlimited access to food and fresh water. The protocol for the HTR assessment has been previously reported. […]
However, a head twitch was defined as a rapid movement of the head, without the involvement of the front paws during grooming. […] At least two observers counted the number of head twitches by visual examination and the number of head twitches was recorded in 5-min cumulative intervals. […]
The effect of Group was assessed using two-way analysis of variance (ANOVA) with Time as the repeated measure. The data was further analyzed at each time point with a one-way ANOVA with Group as the factor followed by planned individual comparisons between different groups using a single degree-of-freedom F test involving the error term from the overall ANOVA when the Time and Group interaction was significant. […]

SMILES: O=C(NCCCCN1CCN(c2ccccc2F)CC1)c1ccc(-c2ccsc2)cc1 [Compound 6a]
- DOI-dependent head twitch response: attenuated the number of head twitches
